According to the supplement of paper PMC10307832:

Legend:
Assay in all cases: relative viability (nuclei count vs DMSO), 5 days (fraction); higher = more cells survive
[1] = compound: CC1=C(C(=O)N2C=CSC2=N1)CCN3CCC(=C(C4=CC=CC=C4)C5=CC=C(C=C5)F)CC3 + O=C(c1cc(Cc2n[nH]c(=O)c3ccccc23)ccc1F)N1CCN(C(=O)C2CC2)CC1 [Olaparib] (partner 8 µM)
In short: (§1)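 Dosing by pin tool came one day after lung cancer cell lines were seeded in 1536-well plates, using either one drug or a fixed anchor-drug dose plus five library-drug doses (not always all listed) in √10 steps. After 5 days, nuclei were counted on 4× images. Relative viability is treated-well nuclei count divided by vehicle-well nuclei count, and values are medians of duplicate plates.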

[2] = compound: CC1=C(C(=O)N2C=CSC2=N1)CCN3CCC(=C(C4=CC=CC=C4)C5=CC=C(C=C5)F)CC3 + CCNC(=O)c1noc(-c2cc(C(C)C)c(O)cc2O)c1-c1ccc(CN2CCOCC2)cc1 [Luminespib] (partner 0.01 µM)
In short: as §1

[3] = compound: CC1=C(C(=O)N2C=CSC2=N1)CCN3CCC(=C(C4=CC=CC=C4)C5=CC=C(C=C5)F)CC3 + CS(=O)(=O)CCNCc1ccc(-c2ccc3ncnc(Nc4ccc(OCc5cccc(F)c5)c(Cl)c4)c3c2)o1 [Lapatinib] (partner 2 µM)
In short: as §1

[4] = compound: CC1=C(C(=O)N2C=CSC2=N1)CCN3CCC(=C(C4=CC=CC=C4)C5=CC=C(C=C5)F)CC3 + Nc1ncn([C@H]2C[C@H](O)[C@@H](CO)O2)c(=O)n1 [Decitabine] (partner 2 µM)
In short: as §1

Cell Line	relative viability ([1]; first compound 0.08 µM)	relative viability ([1]; first compound 0.253 µM)	relative viability ([1]; first compound 0.8 µM)	relative viability ([1]; first compound 2.53 µM)	relative viability ([1]; first compound 8 µM)	relative viability ([2]; first compound 0.08 µM)	relative viability ([2]; first compound 0.253 µM)	relative viability ([2]; first compound 0.8 µM)	relative viability ([2]; first compound 2.53 µM)	relative viability ([2]; first compound 8 µM)	relative viability ([3]; first compound 0.08 µM)	relative viability ([3]; first compound 0.253 µM)	relative viability ([3]; first compound 0.8 µM)	relative viability ([3]; first compound 2.53 µM)	relative viability ([3]; first compound 8 µM)	relative viability ([4]; first compound 0.08 µM)	relative viability ([4]; first compound 0.253 µM)	relative viability ([4]; first compound 0.8 µM)	relative viability ([4]; first compound 2.53 µM)	relative viability ([4]; first compound 8 µM)
NCI-H838	0.747	0.801	0.849	0.925	0.604	0.298	0.263	0.227	0.318	0.259	0.806	0.826	0.917	1.43	0.596	0.488	0.459	0.472	0.547	0.414
NCI-H1793	0.536	0.807	0.937	1.08	0.521	0.167	0.207	0.161	0.178	0.168	0.793	0.535	0.748	0.864	0.575	0.433	0.558	0.502	0.505	0.416
NCI-H520	0.358	0.342	0.341	0.31	0.306	0.202	0.236	0.25	0.251	0.248	0.78	0.693	0.942	1.1	0.684	0.471	0.565	0.519	0.515	0.445
HCC-44	1.01	1.08	1.03	1.13	0.643	1.37	1.51	–	1.3	0.736	1.07	0.83	1	1.07	0.787	1.03	1.09	0.995	1.02	0.985
NCI-H2023	0.563	0.454	0.509	0.607	0.394	1.37	0.783	0.864	0.946	0.518	0.876	0.796	0.783	0.966	0.9	0.257	0.248	0.217	0.24	0.156
NCI-H1975	0.674	0.714	0.899	0.852	0.433	0.202	0.303	0.167	0.292	0.181	0.97	0.855	0.867	0.891	0.518	0.347	0.507	0.36	0.408	0.353
NCI-H2342	0.38	0.44	0.435	0.426	0.43	0.657	0.791	0.789	0.66	0.619	–	–	–	–	–	0.547	0.809	0.697	0.834	0.645
COR-L 105	0.542	0.718	0.633	0.753	0.609	0.673	0.817	0.798	0.809	0.659	0.33	0.443	0.336	0.379	0.401	0.59	0.629	0.71	0.719	0.509
CAL-12T	0.724	0.718	0.79	0.763	0.6	0.224	0.501	0.384	0.502	0.385	–	0.588	0.754	0.668	0.644	–	–	–	–	–
NCI-H2405	0.941	–	0.889	0.989	0.79	0.746	0.744	0.753	0.649	0.564	1.29	1.06	1.05	1.17	0.955	0.785	–	0.8	0.724	0.617
NCI-H1395	0.424	0.43	0.443	0.406	0.434	0.606	0.746	1.01	0.955	0.776	1.11	0.97	0.908	1	0.821	0.718	0.782	0.652	0.688	0.674
NCI-H1648	1.14	0.981	1.28	0.787	0.359	–	–	–	–	–	–	–	–	–	–	0.528	0.587	0.513	0.456	0.453
PC-14	0.209	0.223	0.27	0.251	0.253	0.168	0.175	0.151	0.176	0.151	0.296	0.335	0.301	0.352	0.295	0.205	0.241	0.201	0.237	0.176
A549	–	0.212	0.385	0.36	0.151	–	–	–	–	–	1.06	0.884	0.922	1.23	0.797	0.206	0.249	0.266	0.282	0.194
LOU-NH91	0.872	0.845	0.928	0.946	0.813	0.377	0.34	0.335	0.366	0.361	0.774	0.809	0.765	0.814	0.803	0.796	0.832	0.834	0.926	0.792
EMC-BAC-2	0.46	0.468	0.468	0.522	0.46	1.23	1.15	1.28	1.16	1.03	0.744	0.924	0.89	0.877	0.773	1.14	–	1.01	1.03	0.906

Cell Line	relative viability ([1]; first compound 0.08 µM)	relative viability ([1]; first compound 0.253 µM)	relative viability ([1]; first compound 0.8 µM)	relative viability ([1]; first compound 2.53 µM)	relative viability ([1]; first compound 8 µM)	relative viability ([2]; first compound 0.08 µM)	relative viability ([2]; first compound 0.253 µM)	relative viability ([2]; first compound 0.8 µM)	relative viability ([2]; first compound 2.53 µM)	relative viability ([2]; first compound 8 µM)	relative viability ([3]; first compound 0.08 µM)	relative viability ([3]; first compound 0.253 µM)	relative viability ([3]; first compound 0.8 µM)	relative viability ([3]; first compound 2.53 µM)	relative viability ([3]; first compound 8 µM)	relative viability ([4]; first compound 0.08 µM)	relative viability ([4]; first compound 0.253 µM)	relative viability ([4]; first compound 0.8 µM)	relative viability ([4]; first compound 2.53 µM)	relative viability ([4]; first compound 8 µM)
EBC-1	0.596	0.756	0.777	0.772	0.463	–	–	–	–	–	0.196	–	0.212	0.191	0.225	–	–	–	–	–
NCI-H2009	0.716	0.706	0.654	0.721	0.581	0.973	0.955	1.08	1.11	0.9	1.01	0.903	0.785	0.946	0.786	0.396	0.393	0.396	0.396	0.369
NCI-H460	0.441	0.361	0.423	0.409	0.343	0.0343	0.034	0.0356	0.0314	0.0271	0.629	1.32	1.06	0.93	0.496	0.581	0.445	0.555	0.572	0.157
NCI-H3122	0.458	0.627	0.595	0.628	0.371	0.0707	0.131	0.1	0.0895	0.0997	1.01	1.14	1.03	1.2	0.964	0.398	0.434	0.402	0.467	0.439
NCI-H1563	–	–	–	–	–	0.643	0.572	0.49	0.508	0.534	0.91	0.845	1	1.01	0.857	–	–	–	–	–
NCI-H1666	0.698	0.756	0.684	0.751	0.764	1.07	1.06	1.01	0.984	0.848	0.565	0.704	0.584	0.621	0.486	0.714	0.786	0.678	0.873	0.616
PC-3 [JPC-3]	1.04	–	1.21	1.31	1.05	0.802	0.656	0.66	0.678	0.585	0.392	0.496	0.454	0.454	0.449	0.826	–	0.932	0.845	0.846
NCI-H441	0.5	0.502	0.515	0.642	0.367	0.314	0.477	0.369	0.361	0.339	–	–	–	–	–	0.263	0.255	0.242	0.247	0.239
HCC-366	0.331	0.287	0.469	0.464	0.226	–	–	–	–	–	–	0.778	1.02	1.71	0.412	0.389	0.318	0.324	0.394	0.243
Calu-6	0.475	0.602	0.642	0.573	0.462	–	–	–	–	–	1.04	0.925	1.1	1.4	0.817	–	–	–	–	–
NCI-H1299	1.04	1.01	0.957	0.977	0.803	–	–	–	–	–	1.04	0.88	0.97	1.03	0.767	–	–	–	–	–
NCI-H2228	0.591	0.701	0.723	0.728	0.347	0.126	0.194	0.181	0.137	0.101	1.04	0.974	1.14	0.99	0.635	–	–	–	–	–
HCC-78	0.663	0.872	0.944	0.921	0.608	–	–	–	–	–	0.851	0.784	0.731	0.779	0.51	0.769	0.803	0.765	0.683	0.536
ChaGo-K-1	0.451	0.415	0.411	0.458	0.416	0.462	0.648	0.644	0.514	0.444	–	–	–	–	–	0.495	0.548	0.52	0.629	0.46
LCLC-103H	0.876	0.71	0.859	0.735	0.667	0.791	0.947	0.864	0.93	0.594	–	–	–	–	–	0.685	0.702	0.69	0.826	0.646
